Structures are written as SMILES.

Carbonic anhydrase 1, sequence (P00915 whole entry): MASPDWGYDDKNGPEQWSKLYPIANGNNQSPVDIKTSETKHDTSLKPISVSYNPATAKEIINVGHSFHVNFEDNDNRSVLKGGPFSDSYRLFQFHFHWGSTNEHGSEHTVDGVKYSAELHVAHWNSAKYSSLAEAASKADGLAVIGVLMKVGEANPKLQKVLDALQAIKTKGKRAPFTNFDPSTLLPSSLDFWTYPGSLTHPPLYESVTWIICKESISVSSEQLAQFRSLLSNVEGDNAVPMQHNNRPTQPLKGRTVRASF

This assay concerns the target Carbonic anhydrase 1 (Homo sapiens, UniProt P00915).
With `Cn1nc(S(N)(=O)=O)s/c1=N/S(=O)(=O)c1ccc(N)cc1`, the Ki came to 185 nM.

Take `NS(=O)(=O)c1nc2ccc(OCCO)cc2s1`: the Ki was determined as 23000 nM.

As for `Nc1ccc2nc(S(N)(=O)=O)sc2c1`, the Ki stood at 55 nM.

(Values after ChEMBL document CHEMBL2375240, “The alpha-carbonic anhydrase from the thermophilic bacterium Sulfurihydrogenibium yellowstonense YO3AOP1 is highly susceptible to inhibition by sulfonamides” (Bioorg Med Chem, 2013).)
